# Experimental data reported in patent publication US5229419A, “Chemotherapeutically active acetogenins” (Purdue Research Foundation, priority 1992, dated 1993).
# Columns and labels:
# EKV-X = experiment: NCI in vitro cytotoxicity, non-small cell lung cancer; type: cell-based; details: Homo sapiens, EKVX
# HCC-2998 = experiment: NCI in vitro cytotoxicity, colon cancer; type: cell-based; details: Homo sapiens
# LOX = experiment: NCI in vitro cytotoxicity, melanoma; type: cell-based; details: Homo sapiens
# From the text: Isolated pure compounds were sent to the National Institute of Health, National Cancer Institute, Bethesda, Md., for testing in human cancer cell line panels including leukemia, non-small cell lung cancer, small cell lung cancer, CNS cancer, melanoma, ovarian cancer and renal cancer.
# To test further the selective specificity of antitumor activities, bullatacin was sent to the NIH, NCI at Bethesda, Md., for their human tumor cell line panel tests including leukemia, non-small cell lung cancer, small cell lung cancer, colon cancer, breast cancer, CNS cancer melanoma, ovarian cancer, and renal cancer.
# H69 = experiment: NCI in vitro cytotoxicity, small cell lung cancer; type: cell-based; details: Homo sapiens
# SK-MEL5 = experiment: NCI in vitro cytotoxicity, melanoma; type: cell-based; details: Homo sapiens, SK-MEL-5
# [1] = test system: corn root worm (CRW) Diabrotics undecimcuntata howardii; type: in vivo; details: at 24 ppm
# Experimental: (§1) Pesticidal bioassays were conducted at Eli Lilly Laboratories (Greenfield, Ind.) following standard procedures with eight indicator organisms: mosquito larvae (ML) Aedes aegypti (in the media), blowfly larvae (BFL) (1% in the diet), corn root worm (CRW) Diabrotics undecimcuntata howardii (in soil), two-spotted spider mite (2SSM) Tetranychus urticae (on foliage), southern army worm (SAW) Spodoptera eridania (on foliage), melon aphid (MA) (5000 ppm on foliage), cotton aphid (CA) Aphis gossypii, (on foliage) and Haemonchus contortus (HC) (a nematode, 0.1% in the media).
# (§2) Pesticidal bioassays on initial fractions were conducted at Eli Lilly Laboratories (Greenfield, Ind.) following standard procedures with seven indicator organisms: mosquito larvae (ML), blow fly larvae (BFL), corn root worm (CRW), two-spotted spider mite (2SSM), southern army worm (SAW), melon aphid (MA), and Haemonchus contortus (HC).
# [2] = test system: two-spotted spider mite (2SSM) Tetranychus urticae; type: in vivo; details: at 10 ppm
# Experimental: as §1, §2
# P388 = experiment: NCI in vitro cytotoxicity, leukemia; type: cell-based; details: Mus musculus
# H82 = experiment: NCI in vitro cytotoxicity, small cell lung cancer; type: cell-based; details: Homo sapiens
# A2780 = experiment: NCI in vitro cytotoxicity, ovarian cancer; type: cell-based; details: Homo sapiens
# SK-MEL2 = experiment: NCI in vitro cytotoxicity, melanoma; type: cell-based; details: Homo sapiens, SK-MEL-2
# HOLT-4 = experiment: NCI in vitro cytotoxicity, leukemia; type: cell-based; details: Homo sapiens
# A498 = experiment: NCI in vitro cytotoxicity, renal cancer; type: cell-based; details: Homo sapiens
# SNB-19 = experiment: NCI in vitro cytotoxicity, CNS cancer; type: cell-based; details: Homo sapiens
# TE-671 = experiment: NCI in vitro cytotoxicity, CNS cancer; type: cell-based; details: Homo sapiens
# SNB-75 = experiment: NCI in vitro cytotoxicity, CNS cancer; type: cell-based; details: Homo sapiens
# OVCAR-3 = experiment: NCI in vitro cytotoxicity, ovarian cancer; type: cell-based; details: Homo sapiens
# U251 = experiment: NCI in vitro cytotoxicity, CNS cancer; type: cell-based; details: Homo sapiens, U-251
# H322 = experiment: NCI in vitro cytotoxicity, non-small cell lung cancer; type: cell-based; details: Homo sapiens
# OVCAR-8 = experiment: NCI in vitro cytotoxicity, ovarian cancer; type: cell-based; details: Homo sapiens
# DLD-1 = experiment: NCI in vitro cytotoxicity, colon cancer; type: cell-based; details: Homo sapiens
# H146 = experiment: NCI in vitro cytotoxicity, small cell lung cancer; type: cell-based; details: Homo sapiens
# H522 = experiment: NCI in vitro cytotoxicity, non-small cell lung cancer; type: cell-based; details: Homo sapiens
# H460 = experiment: as above; type: cell-based; details: Homo sapiens
# HL-60 TB = experiment: NCI in vitro cytotoxicity, leukemia; type: cell-based; details: Homo sapiens
# LOVO = experiment: NCI in vitro cytotoxicity, colon cancer; type: cell-based; details: Homo sapiens
# CCRF-CEM = experiment: NCI in vitro cytotoxicity, leukemia; type: cell-based; details: Homo sapiens
# HOP-62 = experiment: NCI in vitro cytotoxicity, non-small cell lung cancer; type: cell-based; details: Homo sapiens
# UO-31 = experiment: NCI in vitro cytotoxicity, renal cancer; type: cell-based; details: Homo sapiens
# protein kinase C = protein kinase C displacement test; type: binding; details: 10 μM
# From the text: The bioassay results for the lethality of brine shrimp (BST), the inhibition of crown gall tumors on potato discs (PD), the reversal in morphology of db-cAMP induced AC glioma cells from that of mature, differentiated astrocytes to that of immature AC glioma cells (mouse brain cells) (9ASK), the dose that inhibits cell growth to one-half that of untreated poorly differentiated human epidermic carcinoma (9KB), the dose that inhibits cell growth to one-half that of a methylcholanthrene-induced lymphoid neoplasm in a DBA/2 mouse (9PS), and the percent displacement in a protein kinase C test for initial extract fractions are shown in Table 1.
structure (smiles),measurement,setting,value
CCCCCCCCCCC(O)C1CCC(C2CCC(C(O)CCCCCCCCCCC(O)CC3=CC(C)OC3=O)O2)O1 (centres unmarked) [Bullatacin],IC50,EKV-X,0.115 ng/mL
same,IC90,EKV-X,> 0.0926 µg/mL
same,IC50,HCC-2998,4.05 µg/mL
same,IC50,LOX,< 0.926 ng/mL
same,IC90,LOX,3.76 µg/mL
same,IC50,H69,2.44 µg/mL
same,IC90,H69,7.52 µg/mL
same,IC50,SK-MEL5,> 0.926 ng/mL
same,IC90,SK-MEL5,5.22 µg/mL
same,toxicity to southern corn rootworm,[1],significantly toxic
same,toxicity to two-spotted spider mites,[2],significantly toxic
same,IC50,P388,> 0.0924 µg/mL
same,IC90,P388,> 0.0924 µg/mL
same,IC50,H82,1.99 µg/mL
same,IC90,H82,7.14 µg/mL
same,IC50,A2780,0.0377 ng/mL
same,IC90,A2780,0.65 ng/mL
same,IC90,SK-MEL2,8.64 µg/mL
same,IC50,HOLT-4,1.41 µg/mL
same,IC90,HOLT-4,4.72 µg/mL
same,IC50,A498,0.0424 ng/mL
same,IC90,A498,3.71 ng/mL
same,IC50,SNB-19,> 0.926 µg/mL
same,IC90,SNB-19,> 0.926 µg/mL
same,IC50,TE-671,0.0256 ng/mL
same,IC90,TE-671,2.74 ng/mL
same,IC50,SNB-75,3.35 µg/mL
same,IC90,SNB-75,> 9.26 µg/mL
same,IC50,OVCAR-3,> 0.0924 µg/mL
same,IC90,OVCAR-3,> 0.0924 µg/mL
same,IC50,U251,< 0.00924 ng/mL
same,IC90,U251,0.0437 ng/mL
same,IC50,H322,< 0.926 ng/mL
same,IC90,H322,> 9.26 µg/mL
same,IC50,OVCAR-8,2.57 µg/mL
same,IC90,OVCAR-8,7.65 µg/mL
same,IC50,DLD-1,2.76 µg/mL
same,IC90,DLD-1,8.62 µg/mL
same,IC90,H146,> 9.26 µg/mL
same,IC50,H522,2.46 µg/mL
same,IC90,H522,> 9.24 µg/mL
same,IC50,H460,0.0287 ng/mL
same,IC90,H460,0.185 ng/mL
same,IC50,HL-60 TB,< 0.926 ng/mL
same,IC50,LOVO,0.915 ng/mL
same,IC90,LOVO,4.69 µg/mL
same,IC50,CCRF-CEM,0.0894 ng/mL
same,IC90,CCRF-CEM,0.0694 µg/mL
same,IC50,HOP-62,< 0.926 ng/mL
same,IC90,HOP-62,5.13 µg/mL
same,IC50,UO-31,1.94 µg/mL
same,IC90,UO-31,> 9.26 µg/mL
same,displacement in a protein kinase C test,protein kinase C,7%
